# Experimental data reported in US8415351B2 (priority 2007, dated 2013).
# Assays:
# [1] = target: T1, HCV polymerase 1B (Δ21 NS5B, BK) (Hepatitis C virus genotype 1b, UniProt P26663); assay: biochemical
# T1 construct: 20 to 50 nM Δ21 NS5B
# Description: (§1) HCV Polymerase Inhibition Assay
# (§2) Either two-fold serial dilutions (fractional inhibition assay) or a narrower range of dilutions spanning the IC50 of the inhibitor (tight binding assay) of the inhibitors were incubated with 20 mM Tris-Cl pH 7.4, 2 mM MnCl2, 1 mM dithiothreitol, 1 mM ethylene diamine tetraacetic acid (EDTA), 60 to 125 μM GTP and 20 to 50 nM Δ21 NS5B (HCV Strain 1B (BK, Genbank accession number M58335, or H77, Genbank accession number AF011751)) for 15 min at room temperature. The reaction was initiated by the addition of 20 μM CTP, 20 μM ATP, 1 μM ^3H-UTP (10 mCi/umol), 5 nM template RNA and 0.1 U/μl RNase inhibitor (RNasin, Promega), and allowed to proceed for 2 to 4 h at room temperature. Reaction volume was 50 μl. The reaction was terminated by the addition of 1 volume of 4 mM spermine in 10 mM Tris-Cl pH 8.0, 1 mM EDTA. After incubation for at least 15 min at room temperature, the precipitated RNA was captured by filtering through a GF/B filter (Millipore) in a 96 well format. The filter plate was washed three times with 200 μl each of 2 mM spermine, 10 mM Tris-Cl pH 8.0, 1 mM EDTA, and 2 times with ethanol. After air-drying, 30 μl of Microscint 20 scintillation cocktail (Packard) was added to each well, and the retained cpm were determined by scintillation counting. […] Retained cpm were plotted vs. inhibitor concentration and fit to equation 1 using non-linear regression (ref. 1) to obtain the IC50 values: Retained cpm=A[sqrt{(IC50+It−Et)^2+4*IC50*Et}−(IC50+It−Et)]
# Ref. Morrison, J. F. and S. R. Stone. 1985. Approaches to the study and analysis of the inhibition of enzymes by slow- and tight-binding inhibitors. Comments Mol. Cell. Biophys. 2: 347-368.
# The sequence of the template RNA used was: 5′-[…] […] […] […] […] […] […] […] […] […] […] […] […] […] […] […] […]-3′ (SEQ ID NO: 1)
# [2] = target: T2, HCV polymerase 1A (Δ21 NS5B, H77) (Hepatitis C virus genotype 1a, UniProt P27958); assay: biochemical; conditions: IC50 1a
# T2 construct: 20 to 50 nM Δ21 NS5B
# T2 sequence (P27958 2421-2990, stated change not applied): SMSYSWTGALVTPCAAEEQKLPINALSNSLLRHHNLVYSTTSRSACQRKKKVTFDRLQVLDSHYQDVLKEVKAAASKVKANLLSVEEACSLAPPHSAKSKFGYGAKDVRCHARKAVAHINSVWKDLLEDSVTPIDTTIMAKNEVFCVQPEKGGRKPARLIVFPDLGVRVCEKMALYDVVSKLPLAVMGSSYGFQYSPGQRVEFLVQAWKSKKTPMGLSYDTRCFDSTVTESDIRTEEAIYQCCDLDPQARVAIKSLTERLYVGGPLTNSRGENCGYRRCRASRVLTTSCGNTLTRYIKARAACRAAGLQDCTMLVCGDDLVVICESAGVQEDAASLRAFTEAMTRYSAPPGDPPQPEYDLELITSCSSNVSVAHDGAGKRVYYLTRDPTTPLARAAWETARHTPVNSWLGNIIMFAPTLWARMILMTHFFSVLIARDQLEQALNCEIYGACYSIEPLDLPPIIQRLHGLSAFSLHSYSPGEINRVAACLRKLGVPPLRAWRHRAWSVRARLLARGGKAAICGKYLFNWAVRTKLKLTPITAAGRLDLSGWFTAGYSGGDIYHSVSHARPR
# Description: as §1
# as §2, with “The” for “Either two-fold serial dilutions (fractional inhibition assay) or a narrower range of dilutions spanning the IC50 of the inhibitor (tight binding assay) of the inhibitors were incubated with 20 mM Tris-Cl pH 7.4, 2 mM MnCl2, 1 mM dithiothreitol, 1 mM ethylene diamine tetraacetic acid (EDTA), 60 to 125 μM GTP and 20 to 50 nM Δ21 NS5B (HCV Strain 1B (BK, Genbank accession number M58335, or H77, Genbank accession number AF011751)) for 15 min at room temperature. The”
# Ref. Morrison, J. F. and S. R. Stone. […] Approaches to the study and analysis of the inhibition of enzymes by slow- and tight-binding inhibitors. Comments Mol. Cell. Biophys.
# The sequence of the template RNA used was: 5′-[…]
# [3] = tested on: genotype 1a-H77 subgenomic replicon cell line; assay: microbe, parasite or virus in culture; assay type: cell-based, HCV; conditions: Hepatitis C virus, read-out: EC50 1a
# [4] = tested on: genotype 1b-Con1 subgenomic replicon cell line; assay: microbe, parasite or virus in culture; assay type: cell-based, HCV; conditions: Hepatitis C virus, read-out: EC50 1b
# T1 sequence (P26663 2420-2989, stated change not applied): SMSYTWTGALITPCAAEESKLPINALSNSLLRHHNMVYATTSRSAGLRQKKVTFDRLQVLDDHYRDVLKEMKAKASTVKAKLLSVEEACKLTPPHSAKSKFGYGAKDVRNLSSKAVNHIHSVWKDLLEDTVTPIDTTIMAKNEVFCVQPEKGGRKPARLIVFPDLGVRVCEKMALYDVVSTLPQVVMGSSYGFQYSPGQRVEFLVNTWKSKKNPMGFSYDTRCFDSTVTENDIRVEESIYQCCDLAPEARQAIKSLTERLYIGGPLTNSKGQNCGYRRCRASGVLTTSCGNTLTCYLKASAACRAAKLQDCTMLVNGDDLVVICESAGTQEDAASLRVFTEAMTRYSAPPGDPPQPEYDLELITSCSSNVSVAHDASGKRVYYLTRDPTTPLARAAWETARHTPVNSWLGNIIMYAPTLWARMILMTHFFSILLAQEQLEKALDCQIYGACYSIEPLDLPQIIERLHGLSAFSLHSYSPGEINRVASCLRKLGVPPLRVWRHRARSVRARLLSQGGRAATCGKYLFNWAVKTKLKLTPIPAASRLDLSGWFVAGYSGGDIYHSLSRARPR
Compound,IC50 [1],IC50 [2],EC50 [3],EC50 [4]
COc1c(C(=O)Nc2ccc(N(COC(C)=O)S(C)(=O)=O)cc2)cc(N2CCC(=O)NC2=O)cc1C(C)(C)C,> 1000 nM,100 to 1000 nM,,
"COc1c(-c2ncc(-c3cccc([N+](=O)[O-])c3)o2)cc(N2CCC(=O)NC2=O)cc1C(C)(C)C [IA-L0-1.10, 1-(3-tert-butyl-4-methoxy-5-(5-(3-nitrophenyl)oxazol-2-yl)phenyl)dihydropyrimidine-2,4(1H,3H)-dione]",> 1000 nM,> 1000 nM,,
"COc1c(-c2ncc(-c3ccc([N+](=O)[O-])cc3)o2)cc(N2CCC(=O)NC2=O)cc1C(C)(C)C [IA-L0-1.11, 1-(3-tert-butyl-4-methoxy-5-(5-(4-nitrophenyl)oxazol-2-yl)phenyl)dihydropyrimidine-2,4(1H,3H)-dione]",> 1000 nM,> 1000 nM,,
"COc1c(-c2nc3cc(N(S(C)(=O)=O)S(C)(=O)=O)ccc3[nH]2)cc(N2CCC(=O)NC2=O)cc1C(C)(C)C [IA-L0-2.10, N-(2-(3-tert-butyl-5-(2,4-dioxotetrahydropyrimidin-1(2H)-yl)-2-methoxyphenyl)-1H-benzo[d]imidazol-5-yl)-N-(methylsulfonyl)methanesulfonamide]",> 1000 nM,> 1000 nM,,
"CN(C(=O)c1cc(N2CCC(=O)NC2=O)cc(C(C)(C)C)c1O)c1ccccc1 [IA-L3-1.1, 3-tert-butyl-5-(2,4-dioxotetrahydropyrimidin-1(2H)-yl)-2-hydroxy-N-methyl-N-phenyl-benzamide]",> 1000 nM,> 1000 nM,,
"CC(C)(C)c1cc(N2CCC(=O)NC2=O)cc(C(=O)Nc2ccc(OCC#N)cc2)c1O [IA-L3-1.17, 3-tert-butyl-N-(4-(cyanomethoxy)phenyl)-5-(2,4-dioxotetrahydropyrimidin-1(2H)-yl)-2-hydroxybenzamide]",,> 1000 nM,> 1000 nM,> 1000 nM
"CC(C)(C)c1cc(N2CCC(=O)NC2=O)cc(C(=O)Nc2ccc(OCC(N)=O)cc2)c1O [IA-L3-1.18, N-(4-(2-amino-2-oxoethoxy)phenyl)-3-tert-butyl-5-(2,4-dioxotetrahydropyrimidin-1(2H)-yl)-2-hydroxybenzamide]",,> 1000 nM,> 1000 nM,100 to 1000 nM
"COc1c(C(=O)Nc2ccc(N(C)S(C)(=O)=O)cc2)cc(N2CCC(=O)N(C)C2=O)cc1C(C)(C)C [IA-L3-1.25, 3-tert-butyl-N-[4-(methanesulfonyl-methyl-amino)-phenyl]-2-methoxy-5-(3-methyl-2,4-dioxo-tetrahydro-pyrimidin-1-yl)-benzamide]",> 1000 nM,> 1000 nM,,
"COc1c(C(=O)Nc2ccc(C(C)=O)cc2)cc(N2CCC(=O)NC2=O)cc1C(C)(C)C [IA-L3-1.42, N-(4-acetylphenyl)-3-tert-butyl-5-(2,4-dioxotetrahydropyrimidin-1(2H)-yl)-2-methoxy-benzamide]",> 1000 nM,> 1000 nM,,
"COc1c(Br)cc(-n2ccc(=O)[nH]c2=O)cc1/C=C/c1ccc(NS(C)(=O)=O)cc1 [IB-L1-1.52, (E)-N-(4-(3-bromo-5-(2,4-dioxo-3,4-dihydropyrimidin-1(2H)-yl)-2-methoxystyryl)phenyl)methanesulfonamide]",,,> 1000 nM,100 to 1000 nM
"COC(=O)c1cc(NS(C)(=O)=O)ccc1CCc1cc(-n2ccc(=O)[nH]c2=O)cc(C(C)(C)C)c1OC [IB-L5-2-1.1, methyl 2-(3-tert-butyl-5-(2,4-dioxo-3,4-dihydropyrimidin-1(2H)-yl)-2-methoxyphenethyl)-5-(methylsulfonamido)benzoate]",,,10 to 100 nM,< 10 nM
"COc1c(CCc2ccc(NS(C)(=O)=O)cc2)cc(-n2ccc(=O)[nH]c2=O)cc1C(C)(C)C [IB-L5-2-1.2, N-(4-(3-tert-butyl-5-(2,4-dioxo-3,4-dihydropyrimidin-1(2H)-yl)-2-methoxyphenethyl)phenyl)methanesulfonamide]",,,100 to 1000 nM,10 to 100 nM
